{"source": "paper PMC8838532", "about": "(Molecules, 2022)", "key": {"WSS-1 cells": {"tested_on": "WSS-1 cells", "experiment": "Resazurin cytotoxicity assay in WSS-1 cells", "format": "cell-based", "conditions": "WSS-1 healthy human cells, 48 h", "method": "(§1) The A549 cell line (CCL-185™; ATCC, Manassas, VA, USA), from human lung carcinoma epithelium, and the K562 cell line (Rio de Janeiro Cell Bank, BCRJ: 0126, Rio de Janeiro, RJ, Brazil), a human chronic myeloid cell line expressing the BCR-ABL1 protein, were grown in RPMI-1640 culture medium (Merck, Darmstadt, Hesse, Germany) supplemented with 10% heat-inactivated fetal bovine serum (FBS; Vitrocell, Campinas, SP, Brazil). WSS-1 [WS-1] (ATCC CRL-2029™) human […] cells were grown in high-glucose DMEM (Vitrocell) supplemented with 10% FBS (Vitrocell). All cell lines were maintained at 37 °C under 5% CO2, in a water jacket CO2 incubator (Forma Series II incubator, Thermo Fisher Scientific, Waltham, MA, USA).\n(§2) Briefly, cells were seeded in 96-well microplates (2 × 10^4 cells/well for K562 cells and 5 × 10^4 cells/well for A549 and WSS-1 cells) and incubated with 10 µM of the test compounds for 48 h at 37 °C. A resazurin (Merck, Darmstadt, Hesse, Germany) solution (final concentration: 0.01 mg/mL) was added to each well before the end of the experiment, at 1 h before concluding for K562 cells, and 2 h before concluding for A549 and WSS-1 cells. Fluorescence readings (λex = 560 nm, […]) were carried out immediately after the addition of resazurin (t0) and at the end of the experiment (tn) with a FlexStation 3 Benchtop multimode microplate reader (Molecular Devices, San Jose, CA, USA). Resorufin fluorescence was calculated by subtracting the fluorescence measured at t0 from that at tn. Cell viability was expressed as percentages, considering the mean resorufin fluorescence of the control wells (cells incubated with only DMSO) to be 100%. Tests were performed in triplicate. The same assay was carried out to generate 8–10 points concentration-response curves (300 µM top compound concentration).\n(§3) IC50 values were calculated by a four-parameter logistic curve function, using GraphPad Prism version 6.01 for Windows (GraphPad Software, San Diego, CA, USA, www.graphpad.com) (accessed on 29 December 2021)."}, "A549 cells [1]": {"tested_on": "A549 cells", "experiment": "Resazurin cytotoxicity assay in A549 cells", "format": "cell-based, human", "conditions": "for fold more potent than imatinib / pIC50: A549 cells; for fold more potent than imatinib: IC50 versus imatinib; for pIC50: Homo sapiens, 48 h, resazurin, concentration-response curve; for SI WSS-1/A549: SI = IC50 (WSS-1)/IC50 (A549)", "method": "as §1, §2, §3"}, "K562 cells [2]": {"tested_on": "K562 cells", "conditions": "150 μM, Figure 1; cited from earlier work"}, "A549 cells [3]": {"tested_on": "A549 cells", "conditions": "150 μM, cited from earlier work; for % viability reduction A549 cells: Figure 1"}, "K562 cells [4]": {"tested_on": "K562 cells", "experiment": "Resazurin cytotoxicity assay in K562 cells", "conditions": "for viability at 10 µM: read-out: percentage of viability"}, "K562 cells [5]": {"tested_on": "K562 cells", "design": "method as in PMID 30055465", "conditions": "cited from earlier work"}, "K562 cells [6]": {"tested_on": "K562 cells", "conditions": "Figure 1; cited from earlier work"}}, "note": "pIC50: −log10 of the molar value. Read-outs that look alike come from different tables or passages of the source."}
{"smiles": "Cc1ccc2c(c1)C(=O)C(=O)N2Cc1cn(-c2ccc(C)c(Nc3nccc(-c4cccnc4)n3)c2)nn1", "note": "[2b, 5-methyl-1-((1-(4-methyl-3-((4-(pyridin-3-yl)pyrimidin-2-yl)amino)phenyl)-1H-1,2,3-triazol-4 yl)methyl)indoline-2,3-dione]", "values": [{"measurement": "melting point", "result": "235 to 237", "unit": "°C"}]}
{"smiles": "Cc1ccc(-n2cc(CN3C(=O)C(=O)c4cc(Cl)ccc43)nn2)cc1Nc1nccc(-c2cccnc2)n1", "note": "[2c, 5-chloro-1-((1-(4-methyl-3-((4-(pyridin-3-yl)pyrimidin-2-yl)amino)phenyl)-1H-1,2,3-triazol-4 yl)methyl)indoline-2,3-dione]", "values": [{"measurement": "melting point", "result": "257 to 260", "unit": "°C"}]}
{"smiles": "Cc1ccc(-n2cc(CN3C(=O)C(=O)c4cc(Br)ccc43)nn2)cc1Nc1nccc(-c2cccnc2)n1", "note": "[2d, 5-bromo-1-((1-(4-methyl-3-((4-(pyridin-3-yl)pyrimidin-2-yl)amino)phenyl)-1H-1,2,3-triazol-4 yl)methyl)indoline-2,3-dione]", "values": [{"measurement": "melting point", "result": "267 to 270", "unit": "°C"}]}
{"smiles": "Cc1ccc(-n2cc(CN3C(=O)C(=O)c4cc(F)ccc43)nn2)cc1Nc1nccc(-c2cccnc2)n1", "note": "[2e, 5-fluoro-1-((1-(4-methyl-3-((4-(pyridin-3-yl)pyrimidin-2-yl)amino)phenyl)-1H-1,2,3-triazol-4 yl)methyl)indoline-2,3-dione]", "values": [{"measurement": "melting point", "result": "251 to 253", "unit": "°C"}]}
{"smiles": "Cc1ccc(-n2cc(CN3C(=O)C(F)(F)c4cc(Cl)ccc43)nn2)cc1Nc1nccc(-c2cccnc2)n1", "note": "[3c, 5-chloro-3,3-difluoro-1-((1-(4-methyl-3-((4-(pyridin-3-yl)pyrimidin-2-yl)amino)phenyl)-1H-1,2,3-triazol-4-yl)methyl)indoline-2-one]", "values": [{"measurement": "melting point", "result": "223 to 224", "unit": "°C"}, {"measurement": "pIC50", "setting": "WSS-1 cells", "result": 4.87}, {"measurement": "fold more potent than imatinib", "setting": "A549 cells [1]", "result": "approximately 10 fold"}, {"measurement": "pIC50", "setting": "A549 cells [1]", "result": 5.19}, {"measurement": "SI WSS-1/A549", "setting": "A549 cells [1]", "result": 2.1}]}
{"smiles": "Cc1ccc(-n2cc(CN3C(=O)C(F)(F)c4cc(Br)ccc43)nn2)cc1Nc1nccc(-c2cccnc2)n1", "note": "[3d, 5-bromo-3.3-difluoro-1-((1-(4-methyl-3-((4-(pyridin-3-yl)pyrimidin-2-yl)amino)phenyl)-1H-1,2,3-triazol-4-yl)methyl)indoline-2-one]", "values": [{"measurement": "melting point", "result": "218 to 219", "unit": "°C"}, {"measurement": "pIC50", "setting": "WSS-1 cells", "result": 4.73}, {"measurement": "fold more potent than imatinib", "setting": "A549 cells [1]", "result": "approximately 10 fold"}, {"measurement": "pIC50", "setting": "A549 cells [1]", "result": 5.14}, {"measurement": "SI WSS-1/A549", "setting": "A549 cells [1]", "result": 2.5}]}
{"smiles": "Cc1ccc(NC(=O)c2ccc(CN3CCN(C)CC3)cc2)cc1Nc1nccc(-c2cccnc2)n1", "note": "[Imatinib, imatinib]", "values": [{"measurement": "% viability reduction K562 cells", "setting": "K562 cells [2]", "result": 61.7, "unit": "%"}, {"measurement": "% viability reduction A549 cells", "setting": "A549 cells [3]", "result": 61.2, "unit": "%"}, {"measurement": "viability at 10 µM", "setting": "K562 cells [4]; Homo sapiens, K562, 48 h", "result": 30.7, "unit": "%"}]}
{"smiles": "Cc1ccc(-n2cc(CN3C(=O)C(=O)c4ccccc43)nn2)cc1Nc1nccc(-c2cccnc2)n1", "note": "[compound 2a, 1-((1-(4-methyl-3-((4-(pyridin-3-yl)pyrimidin-2-yl)amino)phenyl)-1H-1,2,3-triazol-4-yl)methyl)indoline-2,3-dione]", "values": [{"measurement": "melting point", "result": "237 to 239", "unit": "°C"}]}
{"smiles": "Cc1ccc(-n2cc(CN3C(=O)C(F)(F)c4ccccc43)nn2)cc1Nc1nccc(-c2cccnc2)n1", "note": "[compound 3a, 3.3-difluoro-1-((1-(4-methyl-3-((4-(pyridin-3-yl)pyrimidin-2-yl)amino)phenyl)-1H-1,2,3-triazole-4-yl)methyl)indoline-2-one]", "values": [{"measurement": "melting point", "result": 222, "unit": "°C"}, {"measurement": "pIC50", "setting": "WSS-1 cells", "result": 4.94}, {"measurement": "fold more potent than imatinib", "setting": "A549 cells [1]", "result": "approximately 10 fold"}, {"measurement": "pIC50", "setting": "A549 cells [1]", "result": 5.14}, {"measurement": "SI WSS-1/A549", "setting": "A549 cells [1]", "result": 1.6}]}
{"smiles": "Cc1ccc2c(c1)C(F)(F)C(=O)N2Cc1cn(-c2ccc(C)c(Nc3nccc(-c4cccnc4)n3)c2)nn1", "note": "[compound 3b, 3,3-difluoro-5-methyl-1-((1-(4-methyl-3-((4-(pyridin-3-yl)pyrimidin-2-yl)amino)phenyl)-1H-1,2,3-triazol-4-yl)methyl)indolin-2-one]", "values": [{"measurement": "melting point", "result": "102 to 104", "unit": "°C"}, {"measurement": "pIC50", "setting": "WSS-1 cells", "result": 4.16}, {"measurement": "pIC50", "setting": "K562 cells [4]; Homo sapiens, K562, 48 h, read-out: IC50 K562", "result": 4.45}, {"measurement": "viability at 10 µM", "setting": "K562 cells [4]; Homo sapiens, K562, 48 h", "result": 57.5, "unit": "%"}, {"measurement": "SI WSS-1/K562", "setting": "K562 cells [4]; SI = IC50 (WSS-1)/IC50 (K562)", "result": 1.9}]}
{"smiles": "COc1ccc(CN2C(=O)C(=O)c3cc(-c4ccc(OC)cc4)ccc32)cc1", "note": "[compound 4]", "values": [{"measurement": "pIC50", "setting": "K562 cells [5]", "result": 7.52}]}
{"smiles": "Cc1ccc(-c2cn(-c3ccc(CN4CCN(C)CC4)c(C(F)(F)F)c3)nn2)cc1Nc1nccc(-c2cccnc2)n1", "note": "[compound 7]", "values": [{"measurement": "pIC50", "setting": "K562 cells [6]", "result": 7.52}]}
{"smiles": "CC(=O)NCC(=O)Nc1ccc(C)c(Nc2nccc(-c3cccnc3)n2)c1", "note": "[compound 8]", "values": [{"measurement": "% viability reduction K562 cells", "setting": "K562 cells [2]", "result": 66.3, "unit": "%"}, {"measurement": "% viability reduction A549 cells", "setting": "A549 cells [3]", "result": 61.5, "unit": "%"}, {"measurement": "cell viability", "setting": "A549 cells [3]", "result": 38.5, "unit": "%"}]}
{"smiles": "CCc1c2c(nc3ccc(OC(=O)N4CCC(N5CCCCC5)CC4)cc13)-c1cc3c(c(=O)n1C2)COC(=O)[C@]3(O)CC", "note": "[irinotecan]", "values": [{"measurement": "pIC50", "setting": "K562 cells [5]", "result": 7.15}]}
